# In PMC5484120 (Marine Drugs, 2017):
# Target: T1, rα1β1εδ nAChR (UniProt P20782+P25108+P25109+P25110)
# T1 construct: expressed in transfected cells; host or cells: Xenopus laevis oocytes injected with cRNA
# Test: cell-based
# Design: species or system rodent: rat (α1, β1, and δ), mouse (ε)
# T1 sequence (P20782 21-493): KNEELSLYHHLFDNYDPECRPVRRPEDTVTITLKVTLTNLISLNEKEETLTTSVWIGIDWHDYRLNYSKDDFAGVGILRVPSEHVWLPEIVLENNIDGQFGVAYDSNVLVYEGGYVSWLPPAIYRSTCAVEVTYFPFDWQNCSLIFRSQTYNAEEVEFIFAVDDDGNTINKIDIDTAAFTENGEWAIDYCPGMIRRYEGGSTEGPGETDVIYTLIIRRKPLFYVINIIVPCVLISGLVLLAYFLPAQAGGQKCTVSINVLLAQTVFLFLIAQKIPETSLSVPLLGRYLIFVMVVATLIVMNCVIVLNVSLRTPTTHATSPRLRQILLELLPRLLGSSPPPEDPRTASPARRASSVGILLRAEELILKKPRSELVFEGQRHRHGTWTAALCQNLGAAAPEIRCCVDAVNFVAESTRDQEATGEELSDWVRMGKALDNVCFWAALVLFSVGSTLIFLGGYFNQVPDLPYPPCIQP
# T1 sequence (P25108 21-457): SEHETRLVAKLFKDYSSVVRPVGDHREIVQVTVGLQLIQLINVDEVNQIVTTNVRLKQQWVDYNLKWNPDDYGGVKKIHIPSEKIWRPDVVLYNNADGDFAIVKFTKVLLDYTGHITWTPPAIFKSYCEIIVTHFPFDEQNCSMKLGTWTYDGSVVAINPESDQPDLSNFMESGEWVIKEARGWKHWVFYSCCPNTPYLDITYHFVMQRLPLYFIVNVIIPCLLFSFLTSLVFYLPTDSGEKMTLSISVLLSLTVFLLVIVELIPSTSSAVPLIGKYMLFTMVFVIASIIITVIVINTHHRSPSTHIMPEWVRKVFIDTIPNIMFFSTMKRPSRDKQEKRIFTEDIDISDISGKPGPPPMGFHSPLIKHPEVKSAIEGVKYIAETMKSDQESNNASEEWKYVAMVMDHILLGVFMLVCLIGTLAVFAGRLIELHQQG
# T1 sequence (P25109 24-501): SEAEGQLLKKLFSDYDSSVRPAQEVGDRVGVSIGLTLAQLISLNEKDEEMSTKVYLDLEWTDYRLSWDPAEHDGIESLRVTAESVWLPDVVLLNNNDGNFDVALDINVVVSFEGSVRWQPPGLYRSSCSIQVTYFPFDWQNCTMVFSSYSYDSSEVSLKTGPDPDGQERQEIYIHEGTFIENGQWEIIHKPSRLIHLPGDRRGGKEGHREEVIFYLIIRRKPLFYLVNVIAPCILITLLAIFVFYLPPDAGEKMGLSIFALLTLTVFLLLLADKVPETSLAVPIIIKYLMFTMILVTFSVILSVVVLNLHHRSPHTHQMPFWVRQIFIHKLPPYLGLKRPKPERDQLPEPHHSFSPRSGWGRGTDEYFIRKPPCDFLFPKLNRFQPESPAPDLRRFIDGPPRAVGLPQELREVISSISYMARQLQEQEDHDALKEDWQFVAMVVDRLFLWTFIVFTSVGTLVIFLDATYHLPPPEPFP
# T1 sequence (P25110 22-517): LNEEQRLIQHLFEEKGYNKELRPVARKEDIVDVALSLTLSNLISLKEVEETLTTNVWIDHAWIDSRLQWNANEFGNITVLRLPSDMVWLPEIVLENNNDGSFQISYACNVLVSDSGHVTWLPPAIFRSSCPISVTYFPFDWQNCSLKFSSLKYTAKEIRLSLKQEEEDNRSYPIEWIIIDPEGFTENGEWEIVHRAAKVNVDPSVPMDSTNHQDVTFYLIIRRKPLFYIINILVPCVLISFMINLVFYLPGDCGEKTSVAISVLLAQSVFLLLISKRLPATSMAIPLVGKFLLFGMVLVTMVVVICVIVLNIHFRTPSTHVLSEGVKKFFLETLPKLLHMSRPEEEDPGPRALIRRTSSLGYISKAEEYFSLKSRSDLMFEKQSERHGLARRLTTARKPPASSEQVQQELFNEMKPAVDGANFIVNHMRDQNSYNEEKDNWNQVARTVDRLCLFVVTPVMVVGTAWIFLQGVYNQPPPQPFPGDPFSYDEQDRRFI
smiles,measurement,value
CSCC[C@H](NC(=O)[C@H](CC(C)C)NC(=O)[C@H](C)N)C(=O)N[C@@H](CO)C(=O)N[C@H](C(=O)NCC(=O)N[C@H](C(=O)N[C@@H](CC(N)=O)C(=O)N[C@@H](Cc1ccc(O)cc1)C(=O)N[C@@H](CCCNC(=N)N)C(=O)N[C@@H](CC(C)C)C(=O)N[C@@H](CC(C)C)C(=O)N[C@@H](CCCCN)C(=O)N[C@H](C(=O)N[C@@H](CSCC(N)=O)C(=O)N[C@@H](CCCNC(=N)N)C(=O)NCC(=O)N[C@@H](CO)C(=O)NCC(=O)N[C@@H](CCCNC(=N)N)C(=O)N[C@@H](Cc1ccc(O)cc1)C(=O)N[C@@H](CSCC(N)=O)C(=O)N[C@@H](CCCNC(=N)N)C(=O)N[C@@H](CO)C(=O)N1CCC[C@H]1C(=O)N[C@@H](Cc1ccc(O)cc1)C(=O)O)[C@@H](C)O)[C@@H](C)O)[C@@H](C)O [GeXXVIIA-L-Nter],IC50,2.19 ± 0.24 µM
same,"IC50 relative to GeXXVIIA-L, rα1β1εδ nAChR",about three-fold higher than GeXXVIIA-L
